Measurements published in patent US20100087498A1, “USE OF BIOTIN TO PREVENT PHOTOAGING” (priority 2007, published 2010).

System: MMP-1 expression in primary human dermal fibroblasts
Test: Inhibition of UV-A induced expression of matrix metalloproteinase-1 (MMP-1 RNA, real time PCR) in skin fibroblasts
Type: cell-based
Conditions: 30 J/cm^2 UVA1; for MMP-1 expression relative to UV-A only treated cells / reduction of UV-A induced MMP-1 expression: primary human dermal fibroblasts; for MMP-1 expression relative to UV-A only treated cells: 48 h preincubation, 24 hrs after irradiation; for reduction of UV-A induced MMP-1 expression: concentrations as in Table 1
Protocol: Primary human dermal fibroblasts were cultured in EMEM without glutamine (Earle's Minimum Essential Medium), supplemented with antibiotics/antimycotics, 2 mM L-glutamine and 7.5% fetal calf serum at 37° C./5% CO2 and grown to 100% confluency. Forty-eight hours prior to irradiation the cells were preincubated with the desired substances in EMEM (with AB/AM, L-Glutamine and 2% FCS. After 24 hours the medium was replaced by fresh medium with substances (freshly prepared). For irradiation, the medium was removed and after 6 wash steps with phosphate-buffered saline (PBS) replaced by phosphate-buffered saline (PBS). The plate was then exposed to 30 J/cm^2 UVA1. The UVA1 output was approximately 150 mW/cm^2. After irradiation the phosphate-buffered saline in the cell microplate was exchanged against culture medium (+7.5% FCS) with the substances (fresh prepared) and the cells were incubated in a CO2-incubator for further 24 hrs (MMP-1 determination). The culture medium was removed, the cells were rinsed with phosphate-buffered saline and the whole plate was frozen in liquid nitrogen. Total RNA was isolated using RNeasy Total RNA Kits (Qiagen, Hilden; Germany). The RNA concentration was determined via photometric measurement at 260/280. Aliquots of total RNA (75 ng) were applied for cDNA-Synthesis using Superscript™III First-Strand synthesis system for RT-PCR. Two samples for each compound were analyzed. The PCR reactions were carried out on an Opticon 1 (MJ Research, Waltham, Mass., USA) using SYBR Green® PCR Master Mix (Applied Biosystems, Darmstadt, Germany). For comparison of relative expression in real time PCR control cells and treated cells the 2 ^(-delta delta C(T)) method was used.

[1] = EGCG 9 μmol/L, Biotin 0.03 μmol/L

Compound	% inhibition (inhibition of UV-A induced MMP-1 expression, EGCG 9 μmol/L, Biotin 0.03 μmol/L) [%]	MMP-1 expression relative to UV-A only treated cells [1] [%]	reduction of UV-A induced MMP-1 expression [%]	inhibition at 0.03 µM (Homo sapiens, Fibroblast, light or radiation study, inhibition of UV-A induced MMP-1 expression, EGCG 9 μmol/L, Biotin 0.03 μmol/L) [%]
(-)-epigallocatechin gallate [EGCG]	13	87	13	–
O=C(O)CCCC[C@@H]1SC[C@@H]2NC(=O)N[C@@H]21 [Biotin]	–	35	66	66
